The values below are quoted from earlier work in patent US20030157036A1, “Topical dapsone for the treatment of acne” (priority 2002, published 2003).

The subject of this data set is P. acnes.

Regarding `Nc1ccc(S(=O)(=O)c2ccc(N)cc2)cc1` [Dapsone, bis(4-aminophenyl)sulfone], the minimum inhibitory concentration entry is reported as “about 1 microgram per milliliter”.
